The nature of this data set: Half life in human plasma at 20 mg/day, po. Type of data set: ADME, organism-based.

Consider `Cl.Clc1ccc(CCCOCCCN2CCCCC2)cc1` [PITOLISANT HYDROCHLORIDE], for which the half-life (commonly the time in which the quantity being followed falls by half) was 10 to 12 h.

Values taken from ChEMBL document CHEMBL4145555, “Synthetic Approaches to New Drugs Approved During 2016” (J Med Chem, 2018).
